Entries after “also recorded” stand apart in the source; their conditions may differ.
Tests used:
5-HT2A receptors = molecular target: T1, 5-HT2A receptors (Mus musculus, UniProt P35363); test: Psilocybin-induced head-twitch response in mice, antagonist given i.v. 7 min after psilocybin; assay type: in vivo, C57BL/6J mice; settings: for effect on psilocybin-induced head-twitch response: cumulative head twitches until 40 min, groups of 3 mice; for effect on psilocybin-induced head twitch, summary of Examples 13-21: antagonist administered after psilocybin, compared to vehicle-treated mice, dose not restated; for Result (suppression of psilocybin-induced head twitch): 5HT2A antagonist i.v. at T=7 min
T1 construct: from tissue; host or cells: whole living C57BL/6J mice (in vivo behavioural assay)
Text: The head-shake response is elicited by a wide variety of known hallucinogens such as LSD, psilocybin, psilocin, N,N-dimethyltryptamine (DMT), and mescaline as well as serotonin-releasing agents and direct 5-HT2 agonists. […] Later studies have confirmed 5-HT2A receptors are the primary, direct mediators of the response and that the headshake response in rats is essentially the same as head-twitches in mice, at least in regards to similarity in appearance and 5-HT2A receptor dependence.
Male C57BL/6J mice (approximately 25 g) were group housed. Animals were maintained under a 12 h light/dark cycle, at 23° C. with humidity controlled.
(§1) At T=−60 min, C57BL/6J mice were individually housed into transparent observation cages with bedding removed and left to habituate. At T=−3 min, mice were placed into heated cages at 40° C. At T=0 h, groups of 3 mice were dosed intraperitoneally with psilocybin (2 mg/kg). Following dosing, mice were replaced into the heated cages and head-twitch responses continuously scored for 7 min. After 7 min, mice were intravenously dosed via the lateral tail vein with either vehicle 1 (saline) or volinanserin 1 mg/kg in 5 mL/kg dosing volumes. Mice were replaced into the observation cages and head twitch behavior were monitored until 40 min after agonist dosing. Cumulative head-twitches were measured every 2 minutes until 40 minutes after agonist dosing.
as §1, with “min. […]” for “min. After 7 min, mice were intravenously dosed via the lateral tail vein with either vehicle 1 (saline) or volinanserin 1 mg/kg in 5 mL/kg dosing volumes.”, “behavior was” for “behavior were”, “Cumulative head-twitch behavior was” for “Cumulative head-twitches were”
as §1, with “min. […]” for “min. After 7 min, mice were intravenously dosed via the lateral tail vein with either vehicle 1 (saline) or volinanserin 1 mg/kg in 5 mL/kg dosing volumes.”, “behavior was” for “behavior were”, “Cumulative head-twitch behavior was” for “Cumulative head-twitches were”
as §1, with “min. […]” for “min. After 7 min, mice were intravenously dosed via the lateral tail vein with either vehicle 1 (saline) or volinanserin 1 mg/kg in 5 mL/kg dosing volumes.”, “behavior was” for “behavior were”, “Cumulative head-twitch behavior was” for “Cumulative head-twitches were”
as §1, with “min. […]” for “min. After 7 min, mice were intravenously dosed via the lateral tail vein with either vehicle 1 (saline) or volinanserin 1 mg/kg in 5 mL/kg dosing volumes.”, “behavior was” for “behavior were”, “Cumulative head-twitch behavior was” for “Cumulative head-twitches were”
At T=−60 min, C57BL/6J mice were individually housed into transparent observation cages with bedding removed and left to habituate.

[1] = Dynamic vapor sorption (DVS) analysis with XRPD of the post-DVS specimen; assay type: physicochemical; settings: for hygroscopicity (in words): DVS at 25° C., RH range given with the value; for solid form of the post-DVS specimen: XRPD after the DVS experiment (5 to 95% RH and back); for hydrate formation: hysteresis of the DVS curve; for overall water uptake: range between 5-95% RH
Description: (§2) DVS analysis was carried out using a TA Instruments Q5000 Dynamic Vapor Sorption analyzer. The instrument was calibrated with standard weights and a sodium bromide standard for humidity. Approximately 10-25 mg of sample was loaded into a metal-coated quartz pan for analysis. The sample was analyzed at 25° C. with a maximum equilibration time of one hour in 10% relative humidity (RH) steps from 5 to 95% RH (adsorption cycle) and from 95 to 5% RH (desorption cycle). The movement from one step to the next occurred either after satisfying the equilibrium criterion of 0.01% weight change or, if the equilibrium criterion was not met, after one hour. The percent weight change values were calculated using Microsoft Excel®.
as §2, with “Dynamic Vapor Sorption (DVS)” for “DVS”, “is” for “was”, “is” for “were”, “Excel.” for “Excel®.”

[2] = Estimated solubility by adding solvent in aliquots to weighed solid, dissolution judged by visual inspection; settings: for Solubility / Estimated Solubilities: room temperature
[3] = antagonist 1 mg/kg i.v. 7 min after psilocybin 2 mg/kg i.p.
[4] = psilocybin 2 mg/kg i.p., head twitches scored to 40 min
[5] = antagonist 4 mg/kg i.v. 7 min after psilocybin 2 mg/kg i.p.

T1 sequence (P35363 whole entry): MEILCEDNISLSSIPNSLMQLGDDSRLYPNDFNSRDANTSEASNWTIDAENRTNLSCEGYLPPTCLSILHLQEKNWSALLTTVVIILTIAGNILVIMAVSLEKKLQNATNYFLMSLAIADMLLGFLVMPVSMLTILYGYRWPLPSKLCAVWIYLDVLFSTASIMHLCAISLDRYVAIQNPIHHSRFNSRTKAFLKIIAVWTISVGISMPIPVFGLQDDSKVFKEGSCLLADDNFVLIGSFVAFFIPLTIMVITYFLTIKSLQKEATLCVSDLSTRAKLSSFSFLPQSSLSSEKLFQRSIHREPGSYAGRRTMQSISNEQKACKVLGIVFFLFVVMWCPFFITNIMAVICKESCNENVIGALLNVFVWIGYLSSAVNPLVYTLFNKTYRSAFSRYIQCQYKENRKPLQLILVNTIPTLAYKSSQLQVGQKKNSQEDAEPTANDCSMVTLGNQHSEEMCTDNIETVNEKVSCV

Cc1nc2sccn2c(=O)c1CCN1CCC(=C(c2ccc(F)cc2)c2ccc(F)cc2)CC1 [ritanserin]
effect on psilocybin-induced head-twitch response (5-HT2A receptors; [3]): completely suppressed
effect on psilocybin-induced head twitch, summary of Examples 13-21 (5-HT2A receptors): full ending
Result (suppression of psilocybin-induced head twitch) (5-HT2A receptors; [4]): Full suppression of head twitch

CC(=O)Oc1cccc2[nH]cc(CCN(C)C)c12.CS(=O)(=O)O [mesylate salt, Form A, O-Acetyl Psilocin Mesylate]
hygroscopicity (in words) [1]: non-hygroscopic in the range from 5-55% RH; also recorded: highly hygroscopic material above 55% RH
Water uptake ([1]; DVS, above 55% RH): 40%
solid form of the post-DVS specimen [1]: a liquid

Maleate
Water solubility ([2]; water): >50000 µg/mL
Water uptake ([1]; 5-95% RH): ~0.8, 5-95%
Water uptake (25-65% RH) % [1]: ~0.3%

CC(=O)Oc1cccc2[nH]cc(CCN(C)C)c12.O=C(O)C(O)C(O)C(=O)O [L-tartrate, Form A]
RH above which hygroscopic (DVS) ([1]; DVS): > 85 % RH
RH range in which non-hygroscopic (DVS) ([1]; DVS): 5-85 % RH
hydrate formation upon DVS ([1]; DVS, high RH): resulting in hydrate
water uptake, DVS ([1]; above 85% RH): ~6%

N#Cc1c[nH]c2c(C(=O)N3CCN(CCc4ccc(F)cc4)CC3)cccc12 [pruvanserin]
effect on psilocybin-induced head-twitch response (5-HT2A receptors; [3]): completely suppressed
effect on psilocybin-induced head twitch, summary of Examples 13-21 (5-HT2A receptors): full ending
Result (suppression of psilocybin-induced head twitch) (5-HT2A receptors; [4]): Full suppression of head twitch

O=C(c1ccc(F)cc1)C1CCN(CCn2c(=O)[nH]c3ccccc3c2=O)CC1 [ketanserin]
effect on psilocybin-induced head-twitch response (5-HT2A receptors; antagonist 2 mg/kg i.v. 7 min after psilocybin 2 mg/kg i.p.): completely suppressed

O=c1[nH]c2ccccc2n1CCN1CCN(c2cccc(C(F)(F)F)c2)CC1 [flibanserin]
effect on psilocybin-induced head-twitch response (5-HT2A receptors; [3]): partially suppressed
effect on psilocybin-induced head-twitch response (5-HT2A receptors; [5]): partially suppressed
effect on psilocybin-induced head twitch, summary of Examples 13-21 (5-HT2A receptors): partial suppression
Result (suppression of psilocybin-induced head twitch) (5-HT2A receptors; [4]): Partial suppression of head twitch

CN(C)CCc1c[nH]c2cccc(OP(=O)(O)O)c12 [psilocybin]
hygroscopicity (in words) [1]: hygroscopic between 75-95% RH; also recorded: Hygroscopic above 75% RH:
solid form of the post-DVS specimen [1]: converted to a hydrate Form B; also recorded: a hydrated form of psilocybin resulted from water sorption between 75-95% RH; also recorded: Crystalline Form B (hydrate)

COc1cccc([C@H](O)C2CCN(CCc3ccc(F)cc3)CC2)c1OC [volinanserin]
effect on psilocybin-induced head-twitch response (5-HT2A receptors; [3]): completely suppressed
effect on psilocybin-induced head twitch, summary of Examples 13-21 (5-HT2A receptors): full ending
Result (suppression of psilocybin-induced head twitch) (5-HT2A receptors; [4]): Full suppression of head twitch

CC(=O)Oc1cccc2[nH]cc(CCN(C)C)c12.O=C(O)C(O)C(O)C(=O)O [L-tartrate salt, Form A, O-Acetyl Psilocin Tartrate]
hygroscopicity (in words) [1]: non-hygroscopic in the range from 5-85% RH; also recorded: hygroscopic above 85% RH
Water uptake ([1]; DVS, above 85% RH): approx. 6%
hydrate formation ([1]; DVS, above 85% RH): consistent with hydrate formation
hydrate formation ([1]; DVS, above 85% RH, listed as Tartrate A): possible hydrate formation
solid form of the post-DVS specimen [1]: consistent with Form A by XRPD analysis and exhibited additional diffraction peaks

CC(=O)Oc1cccc2[nH]cc(CCN(C)C)c12.O=C(O)/C=C/C(=O)O [O-acetylpsilocin fumarate Form A, O-acetylpsilocin fumarate]
Solubility ([2]; 1,4-dioxane): <1000 µg/mL
Solubility ([2]; 2-propanol (2-PrOH)): 1000 µg/mL
Solubility ([2]; 50:50 MeOH:water): >33000 µg/mL
Solubility ([2]; 50:50 THF:water): >55000 µg/mL
Solubility ([2]; 70:30 ACN:water): >75000 µg/mL
Solubility ([2]; 70:30 acetone:water): >51000 µg/mL
Solubility ([2]; 95:5 1,4-dioxane:water): 3000 µg/mL
Solubility ([2]; 95:5 ACN:water): 12000 µg/mL
Solubility ([2]; 95:5 EtOH:water): 9000 µg/mL
Solubility ([2]; 95:5 IPA:water): 4000 µg/mL
Solubility ([2]; 95:5 MeOH:water): >26000 µg/mL
Solubility ([2]; 95:5 THF:water): >17000 µg/mL
Solubility ([2]; 95:5 acetone:water): 10000 µg/mL
Solubility ([2]; acetone): <1000 µg/mL
Solubility ([2]; acetonitrile (ACN)): <1000 µg/mL
Solubility ([2]; dichloromethane (DCM)): <1000 µg/mL
Solubility ([2]; ethanol (EtOH)): 2000 µg/mL
Solubility ([2]; ethyl acetate (EtOAc)): <1000 µg/mL
Solubility ([2]; hexanes): <1000 µg/mL
Solubility ([2]; methanol (MeOH)): 2000 µg/mL
Solubility ([2]; tetrahydrofuran (THF)): 1000 µg/mL
Solubility ([2]; toluene): <1000 µg/mL
Solubility ([2]; water): 11000 µg/mL
hygroscopicity (in words) [1]: non-hygroscopic
overall water uptake ([1]; DVS): approx. 0.1%

CC(=O)Oc1cccc2[nH]cc(CCN(C)C)c12 [O-Acetyl Psilocin Freebase, O-Acetyl Psilocin]
Estimated Solubilities ([2]; 1,4-dioxane): >62
Estimated Solubilities ([2]; 2-methyltetrahydrofuran 2-Me(THF)): >50
Estimated Solubilities ([2]; 2-propanol (2-PrOH)): >32
Estimated Solubilities ([2]; Methyl ethyl ketone (MEK)): >51
Estimated Solubilities ([2]; Methyl tert-butyl ether (MTBE)): >23
Estimated Solubilities ([2]; acetone): >59
Estimated Solubilities ([2]; acetonitrile (ACN)): >67
Estimated Solubilities ([2]; ethanol (EtOH)): >62
Estimated Solubilities ([2]; hexanes): <1
Estimated Solubilities ([2]; methanol (MeOH)): >62
Estimated Solubilities ([2]; toluene): >59
Estimated Solubilities ([2]; water): <1

CC(=O)Oc1cccc2[nH]cc(CCN(C)C)c12.O=C(O)CC(O)C(=O)O [Malate Form B]
Water uptake ([1]; 5-85% RH): 0.8%, 5-85% RH;
Water uptake (25-65% RH) % [1]: ~0.3%
Water uptake ([1]; above 85% RH): 4.5% above 85%

COc1ccc(NC(=O)Nc2ccc(F)cc2F)cc1-c1c(Br)cnn1C [nelotanserin]
effect on psilocybin-induced head-twitch response (5-HT2A receptors; [3]): partially suppressed
effect on psilocybin-induced head-twitch response (5-HT2A receptors; [5]): completely suppressed; also recorded: completed suppressed
effect on psilocybin-induced head twitch, summary of Examples 13-21 (5-HT2A receptors): partial suppression
Result (suppression of psilocybin-induced head twitch) (5-HT2A receptors; [4]): Partial suppression of head twitch,
Result (suppression of psilocybin-induced head twitch) at high dose (5-HT2A receptors; psilocybin 2 mg/kg i.p., antagonist at high dose (4 mg/kg) i.v. at T=7 min, head twitches scored to 40 min): full suppression at high dose

CC(=O)Oc1cccc2[nH]cc(CCN(C)C)c12.O=C(O)C[C@H](O)C(=O)O [L-malate salt, Form B, O-Acetyl Psilocin Malate]
hygroscopicity (in words) [1]: non-hygroscopic in the range between 5-85% RH; also recorded: hygroscopic above 850% RH
Water uptake ([1]; DVS, above 85% RH): approx. 4.500%
hydrate formation ([1]; DVS, above 85% RH): no hydrate formation occurred
hydrate formation ([1]; DVS, above 85% RH, listed as Malate B): possible hydrate formation
solid form of the post-DVS specimen [1]: consistent with Form B

CC(=O)Oc1cccc2[nH]cc(CCN(C)C)c12.O=C(O)/C=C\C(=O)O [maleate salt, Form A, O-acetyl psilocin maleate]
hygroscopicity (in words) [1]: non-hygroscopic
hygroscopicity (in words) ([1]; listed as maleate salt): minimal water sorption over the RH range
overall water uptake ([1]; DVS): approx. 0.8%
solid form of the post-DVS specimen [1]: consistent with Form A

CC(=O)Oc1cccc2[nH]cc(CCN(C)C)c12.O=C(O)C(O)C(O)C(=O)O [Tartrate Form A]
Water uptake (25-65% RH) % [1]: 0.1%
Water uptake ([1]; 85-95% RH): 5-6% 85-95% RH
RH at which likely hydrate formation is shown ([1]; listed as 'Other forms'): at 95% RH

From patent US20250011351A1, “[…] O-ACETYLPSILOCIN, SALTS AND SOLID STATE FORMS THEREOF” (Terran Biosciences Inc., priority 2021, published 2025)
